Where a name gives a salt, the structure may show the parent alone.
Test system: MC3T3-E1 cells
Test: ALP activity, differentiation of osteoblast cells
Type: cell-based
Conditions: Mus musculus, MC3T3-E1, 144 h; MC3T3E1 cells treated with 10 μM compound and OF; relates activity to OF-only group (100%); higher = more efficacious
Protocol: To examine the effects of the inventive indenone derivatives on the differentiation and activation of osteoblast cells, the activity and expression of alkaline phosphatase (ALP), a marker for the differentiation of osteoblast cells, and the bone nodule formation using a mouse derived osteoblast-like cells, MC3T3-E1 (ATCC, Japan) or a primary mouse calvaria derived preosteoblastic cells were observed.
MC3T3-E 1 cells were seeded in a medium containing osteogenic factors (OF) such as ascorbic acids and β-glycerophosphates (b-GP), and each compound of Examples was added thereto at a concentration of 0.1, 1 and 10 μM. The cells were incubated for 6 days (MC3T3-E1 cells) or 7 days (primary mouse calvaria derived preosteoblastic cells) in a 37° C. CO2 incubator. Then, the culture medium was replaced with a fresh medium together with the test compound every two or three days. On the last day, the medium was centrifuged to remove the supernatant, and the cells were washed with PBS. The washed cells were subjected to a 3-cycle freege-thaw treatment using a −70° C. deep freezer to allow enzymes elute in a lysis buffer. The lysed protein was quantified, followed by measurement of ALP activity using 4-nitrophenylphosphate.
Further, a group treated only with DMSO or OF was tested for ALP activities for comparison.

Row | Structure (SMILES) | activity at 10 µM [%]
1 | CS(=O)(=O)N1CCN(CCOc2ccc3c(c2)C(=O)C(c2cccnc2)=C3c2ccccc2)CC1 [Example 45, 6-[2-(4-(methylsulfonyl)piperazin-1-yl)ethoxy]-3-phenyl-2-(pyridin-3-yl)-1H-inden-1-one hydrochloride salt] | 192
2 | Cc1ccc(C2=C(c3cc(F)cc(F)c3)c3ccc(OCCCN4CCN(S(C)(=O)=O)CC4)cc3C2=O)cc1 [Example 105, 3-(3,5-Difluorophenyl)-6-{3-[4-(methylsulfonyl)piperazin-1-yl]propoxy}-2-p-tolyl-1H-inden-1-one hydrochloride salt] | 99
3 | CS(=O)(=O)N1CCN(CCCOc2ccc3c(c2)C(=O)C(c2cnc4ccccc4c2)=C3c2cc(F)cc(F)c2)CC1 [Example 104, 3-(3,5-difluorophenyl)-6-{3-[4-(methylsulfonyl)piperazin-1-yl]propoxy}-2-(quinolin-3-yl)-1H-inden-1-one hydrochloride salt] | 124
4 | N#Cc1cccc(C2=C(c3ccccc3)c3ccc(OCCN4CCOCC4)cc3C2=O)c1 [Example 5, 3-(6-(2-morpholinoethoxy)-1-oxo-3-phenyl-1H-inden-2-yl)benzonitrile] | 44
5 | O=C1C(c2cnc3ccccc3c2)=C(c2ccc(F)cc2F)c2ccc(OCCN3CCOCC3)cc21 [Example 127, 3-(2,4-difluorophenyl)-6-[2-(morpholin-4-yl)ethoxy]-2-(quinolin-3-yl)-1H-inden-1-one] | 55
6 | COc1ccc(C2=C(c3cc(F)cc(F)c3)c3ccc(OCCCN4CCN(S(C)(=O)=O)CC4)cc3C2=O)cn1 [Example 107, 3-(3,5-difluorophenyl)-2-(6-methoxypyridin-3-yl)-6-{3-[4-(methylsulfonyl)piperazin-1-yl]propoxy}-1H-inden-1-one hydrochloride salt] | 286
7 | O=C1C(c2ccc(F)cc2)=C(c2ccccc2)c2ccc(OCCN3CCOCC3)cc21 [Example 17, 6-(2-morpholinoethoxy)-2-(4-fluorophenyl)-3-phenyl-1H-inden-1-one] | 236
8 | CS(=O)(=O)N1CCN(CCOc2ccc3c(c2)C(=O)C(c2cncnc2)=C3c2ccc(Cl)cc2)CC1 [Example 54, 3-(4-chlorophenyl)-6-(2-(4-(methylsulfonyl)piperazin-1-yl)ethoxy)-2-(pyrimidin-5-yl)-1H-inden-1-one hydrochloride salt] | 62
9 | CS(=O)(=O)N1CCC(CCOc2ccc3c(c2)C(=O)C(c2cnc4ccccc4c2)=C3c2cc(F)cc(F)c2)CC1 [Example 101, 3-(3,5-difluorophenyl)-6-{2-[1-(methylsulfonyl)piperidin-4-yl]ethoxy}-2-(quinolin-3-yl)-1H-inden-1-one hydrochloride salt] | 216
10 | O=C1C(c2cccnc2)=C(c2ccc(Cl)cc2)c2ccc(OCCN3CCOCC3)cc21 [Example 28, 6-(2-morpholinoethoxy)-3-(4-chlorophenyl)-2-(pyridin-3-yl)-1H-inden-1-one] | 134
11 | O=C1C(c2ccc(C(F)(F)F)cc2)=C(c2ccccc2)c2ccc(OCCN3CCOCC3)cc21 [Example 13, 6-(2-morpholinoethoxy)-2-(4-(trifluoromethyl)phenyl)-3-phenyl-1H-inden-1-one] | 151
12 | COc1ccc(C2=C(c3cc(F)cc(F)c3)c3ccc(OCCC4CCN(S(C)(=O)=O)CC4)cc3C2=O)cc1F [Example 102, 3-(3,5-difluorophenyl)-2-(3-fluoro-4-methoxyphenyl)-6-{2-[1-(methylsulfonyl)piperidin-4-yl]ethoxy}-1H-inden-1-one] | 220
13 | O=C1C(c2cccnc2)=C(c2cc(F)cc(F)c2)c2ccc(OCCCN3CCNCC3)cc21 [Example 66, 3-(3,5-difluorophenyl)-6-(3-(piperazin-1-yl)propoxy)-2-(pyridin-3-yl)-1H-inden-1-one hydrochloride salt] | 70
14 | COc1ccc(C2=C(c3ccc(F)cc3F)c3ccc(OCCN4CCN(S(C)(=O)=O)CC4)cc3C2=O)cc1F [Example 118, 2-(3-fluoro-4-methoxyphenyl)-3-(2,4-difluorophenyl)-6-{2-[4-(methylsulfonyl)piperazin-1-yl]ethoxy}-1H-inden-1-one] | 311
15 | O=C1C(c2cnc3ccccc3c2)=C(c2ccccc2)c2ccc(OCCN3CCOCC3)cc21 [Example 3, 6-(2-morpholinoethoxy)-3-phenyl-2-(quinolin-3-yl)-1H-inden-1-one] | 216
16 | O=C1C(c2cccnc2)=C(c2cc(F)cc(F)c2)c2ccc(OCCc3ccccc3)cc21 [Example 61, 3-(3,5-difluorophenyl)-6-phenethoxy-2-(pyridin-3-yl)-1H-inden-1-one hydrochloride salt] | 113
17 | Cc1ccc(C2=C(c3cc(F)cc(F)c3)c3ccc(OCCN4CCN(S(C)(=O)=O)CC4)cc3C2=O)cc1 [Example 98, 3-(3,5-difluorophenyl)-6-{2-[4-(methylsulfonyl)piperazin-1-yl]ethoxy}-2-p-tolyl-1H-inden-1-one hydrochloride salt] | 146
18 | O=C1C(c2ccc(C(F)(F)F)cc2)=C(c2ccc(C(F)(F)F)cc2)c2ccc(OCCN3CCOCC3)cc21 [Example 33, 6-(2-morpholinoethoxy)-2,3-bis(4-(trifluoromethyl)phenyl)-1H-inden-1-one] | 65
19 | CC(C)(C)OC(=O)N1CCN(CCCOc2ccc3c(c2)C(=O)C(c2cccnc2)=C3c2cc(F)cc(F)c2)CC1 [Example 64, tert-butyl 4-(3-(3-(3,5-difluorophenyl)-1-oxo-2-(pyridin-3-yl)-1H-inden-6-yloxy)propyl)piperazine-1-carboxylate] | 34
20 | O=C1C(c2cccnc2)=C(c2cc(F)cc(F)c2)c2ccc(OCCN3CCCCC3)cc21 [Example 63, 3-(3,5-difluorophenyl)-6-(2-(piperidin-1-yl)ethoxy)-2-(pyridin-3-yl)-1H-inden-1-one hydrochloride salt] | 53
21 | CS(=O)(=O)N1CCN(CCOc2ccc3c(c2)C(=O)C(c2cnc4ccccc4c2)=C3c2ccc(F)cc2F)CC1 [Example 119, 3-(2,4-difluorophenyl)-6-{2-[4-(methylsulfonyl)piperazin-1-yl]ethoxy}-2-(quinolin-3-yl)-1H-inden-1-one] | 170
22 | Cc1ccc(C2=C(c3ccccc3)c3ccc(OCCN4CCOCC4)cc3C2=O)cc1F [Example 19, 6-(2-morpholinoethoxy)-2-(3-fluoro-4-methylphenyl)-3-phenyl-1H-inden-1-one] | 220
23 | COc1ccc(C2=C(c3ccccc3)c3ccc(OCCN4CCOCC4)cc3C2=O)cn1 [Example 6, 6-(2-morpholinoethoxy)-2-(6-methoxypyridin-3-yl)-3-phenyl-1H-inden-1-one] | 63
24 | CC(C)(C)OC(=O)N1CCC(CCOc2ccc3c(c2)C(=O)C(c2cccnc2)=C3c2cc(F)cc(F)c2)CC1 [Example 69, tert-butyl 4-(2-(3-(3,5-difluorophenyl)-1-oxo-2-(pyridin-3-yl)-1H-inden-6-yloxy)ethyl)piperidine-1-carboxylate] | 72
25 | C[n+]1cccc(C2=C(c3ccccc3)c3ccc(OCC[N+]4(C)CCOCC4)cc3C2=O)c1 [Example 40, 4-methyl-4-(2-{[2-(1-methylpyridin-1-ium-3-yl)-1-oxo-3-phenyl-1H-inden-6-yl]oxy}ethyl)morpholin-4-ium diiodide] | 291
